Results on 18 compounds are retold here after patent publication US11617758B2, “Emulsion formulations” (Marius Pharmaceuticals LLC, priority 2013, dated 2023).

Molecules are shown by their SMILES. Values after ≈ are worked out from the molar mass of the structure shown. Where two headings read alike, the source gives them in different places.

The nature of series [1]: TU solubility in various solubilizers. As to conditions: testosterone undecanoate dissolved in the named vehicle.
Series [2] has as its system absorption of cholesterol. As to conditions: 1 g ingested, meal containing 500 mg of cholesterol; cited from earlier work.
The conditions of series [3]: 200 mg oral twice daily, cited from earlier work.
For series [4] the following is noted: cited from earlier work.
For series [5] the following is noted: cited from earlier work. This is another data set of the same source.
In the next series the test system is plasma lipids. Conditions: interesterified with margarine, mild hypercholesteremia; cited from earlier work.

Regarding `CCCCCCCC/C=C\CCCCCCCC(=O)OCC` [Crodamol EO (ethyl oleate), ethyl oleate], in series [1], the “TU Solubility (mg/g) at 37 C.” value worked out at 221 mg/g.

`CCCCCC[C@@H](O)C/C=C\CCCCCCCC(=O)O` [Ricinoleic acid]: in series [1], the “TU Solubility (mg/g) at 37 C.” value turned out to be 244 mg/g.

With `CCCCCCCC/C=C\CCCCCCCC(=O)O` [Oleic acid], in series [1], the “TU Solubility (mg/g) at 37 C.” value stood at 405 mg/g.

On to `CCCCCCCC/C=C\CCCCCCCC(=O)OCC(COC(=O)CCCCCCC/C=C\CCCCCCCC)OC(=O)CCCCCCC/C=C\CCCCCCCC` [Glyceryl trioleate (Capmul GTO), Glyceryl trioleate], for which the “TU Solubility (mg/g) at 37 C.” value in series [1] was 154 mg/g.

On to `CCOCCOCCO` [Transcutol HP, diethylene glycol monoethyl ether], for which the “TU Solubility (mg/g) at 37 C.” value in series [1] worked out at 180 mg/g.

As for `CCCCCCCCCCCCCC(=O)OC(C)C` [Crodamol IPM (isopropyl myristate), isopropyl myristate], the “TU Solubility (mg/g) at 37 C.” value in series [1] is given as 295 mg/g.

With `CCCCC/C=C\C/C=C\CCCCCCCC(=O)OCC` [Ethyl linoleate], the “TU Solubility (mg/g) at 37 C.” value in series [1] stood at 230 mg/g.

`CC[C@H](CC[C@@H](C)[C@H]1CC[C@H]2[C@@H]3CC=C4C[C@@H](O)CC[C@]4(C)[C@H]3CC[C@]12C)C(C)C` [ß-sitosterol]: in series [2], the “reduction of absorption of cholesterol” value is 42%.

Take `CC/C=C\C/C=C\C/C=C\CCCCCCCC(=O)O` [Linolenic acid]: the “TU Solubility (mg/g) at 37 C.” value in series [1] is listed as 162 mg/g.

Turning to `CCCCC/C=C\C/C=C\CCCCCCCC(=O)O` [Linoleic acid], the “TU Solubility (mg/g) at 37 C.” value in series [1] is 391 mg/g.

Turning to `C[C@]12CC[C@H]3[C@@H](CCC4=CC(=O)CC[C@@]43C)[C@@H]1CC[C@@H]2O` [micronized testosterone, testosterone], the “time of total serum testosterone within the normal range” value in series [3] (two doses) is reported as “greater than 12 hours”. Further, the “time at desired level of serum testosterone for each peak” value in series [3] is listed as “about 4 hours”.

Regarding `CCCCCCCCCCC(=O)O[C@H]1CC[C@H]2[C@@H]3CCC4=CC(=O)CC[C@]4(C)[C@H]3CC[C@]12C` [TU, testosterone undecanoate], the oral bioavailability entry in series [4] (dosed with normal fat meal (30% calories from fat), solution of TU in oleic acid) was “about 7%”. Also, the “fraction absorbed via the intestinal lymphatic system” value in series [4] (in vivo) was “More than 80%”.

`CCCCCCCCCCCCCCCC(=O)OC(C)C` [Crodamol IPP (isopropyl palmitate), isopropyl palmitate]: the “TU Solubility (mg/g) at 37 C.” value in series [1] stood at 215 mg/g.

Take `Cc1c(C)c2c(c(C)c1O)CCC(C)(CCCC(C)CCCC(C)CCCC(C)C)O2` (racemic) [dl-alpha-tocopherol]: in series [1], the “TU Solubility (mg/g) at 37 C.” value amounted to 527 mg/g.

In the case of `C[C@]12CC[C@H]3[C@@H](CCC4=CC(=O)CC[C@@]43C)[C@@H]1CC[C@@H]2O` [testosterone], the oral bioavailability in series [4] (dosed as a suspension in oil) is recorded as 1%. In series [4] (in vivo), the “circulating fraction bound to sex hormone binding globulin and albumin” value is > 98%; the plasma half-life was 10 to 30 min.

On to `CN1CCCC1=O` [N-methyl pyrolidone], for which, in series [1], the “TU Solubility (mg/g) at 37 C.” value is reported as >500 mg/g.

Take `CC(C)CCC[C@@H](C)[C@H]1CC[C@H]2[C@@H]3CC=C4C[C@@H](O)CC[C@]4(C)[C@H]3CC[C@]12C` [Cholesterol]: the water solubility in series [5] was ~0.01 µg/mL (≈ 0.0259 µM).

For `CC[C@H](CC[C@@H](C)[C@H]1CC[C@H]2[C@@H]3CC[C@H]4C[C@@H](O)CC[C@]4(C)[C@H]3CC[C@]12C)C(C)C` [sitostanol], in the series with plasma lipids, the “mean 1-year reduction in plasma cholesterol” value is 10.2%.
